Tests used:
Format in all cases: cell-based, human
HepG2 cell line [1] = assay: Number of HepG2 cells on the day of trypsinization (survival) in the presence of ddC; conditions: ddC 177 nM; for Number of cells on the day of the trypsinization: HepG2, uridine 200 μM or vitamin cocktail where named
Protocol: (§1) Cell culture. The HepG2 cell line, a human hepatoma cell line, is taken from the American Type Culture Collection (ATCC No. HB-8065). It is cultured at 37° C. in a 5% CO2 atmosphere. The culture medium is Dulbecco's Modified Eagle Medium (DMEM-containing 4.5 g/l glucose, 110 mg/l pyruvate, 4 mg/l nicotinamide, 4 mg/l pyridoxal hydrochloride, 4 mg/l thiamine and 0.4 riboflavin), supplemented with 10% fetal bovine serum (50 ml FCS, Mycoplex PAA Laboratories, Linz). On day 1, 2.7×10^6 cells are placed in 75 ml culture flasks (Falcon, Becton Dickinson, USA). On days 5, 10, 15, 20 and 25, the cells are trypsinized and counted; 2.7×10^6 cells are again spread out. The medium is changed on each day of trypsinization and on the third day after replating. Materials: Riboflavin (vitamin B2), thiamine (vitamin B1), ascorbic acid (vitamin C), uridine and ddC are purchased from Sigma (USA). The concentrations of uridine are given in the following tables; ddC is used in a concentration of 177 nM, which corresponds to the steady-state plasma levels of patients under HAART. A vitamin cocktail consisting of 7.125 mg/l riboflavin, 7.125 mg/l thiamine and 142.5 mg/l vitamin C is used. These pharmacological concentrations exceed the daily requirement by a factor of about one hundred, and meet the safe upper limits according to the recommendations of the European Union for these micro-nutrients.

[2] = tested on: mitochondrial DNA (mtDNA); assay: Quantification of mitochondrial DNA by Southern Blot (M/N ratio) in HepG2 cells; conditions: ddC 177 nM; for Content of mitochondrial DNA, M/N-ratio in % of the control: control = HepG2-cells without ddC and without uridine
Protocol: Cell culture. The HepG2 cell line, a human hepatoma cell line, is taken from the American Type Culture Collection (ATCC No. HB-8065). It is cultured at 37° C. in a 5% CO2 atmosphere. The culture medium is Dulbecco's Modified Eagle Medium (DMEM-containing 4.5 g/l glucose, 110 mg/l pyruvate, 4 mg/l nicotinamide, 4 mg/l pyridoxal hydrochloride, 4 mg/l thiamine and 0.4 riboflavin), supplemented with 10% fetal bovine serum (50 ml FCS, Mycoplex PAA Laboratories, Linz). On day 1, 2.7×10^6 cells are placed in 75 ml culture flasks (Falcon, Becton Dickinson, USA). On days 5, 10, 15, 20 and 25, the cells are trypsinized and counted; 2.7×10^6 cells are again spread out. The medium is changed on each day of trypsinization and on the third day after replating. Materials: Riboflavin (vitamin B2), thiamine (vitamin B1), ascorbic acid (vitamin C), uridine and ddC are purchased from Sigma (USA). The concentrations of uridine are given in the following tables; ddC is used in a concentration of 177 nM, which corresponds to the steady-state plasma levels of patients under HAART. A vitamin cocktail consisting of 7.125 mg/l riboflavin, 7.125 mg/l thiamine and 142.5 mg/l vitamin C is used. These pharmacological concentrations exceed the daily requirement by a factor of about one hundred, and meet the safe upper limits according to the recommendations of the European Union for these micro-nutrients. Quantification of mitochondrial DNA (mtDNA) by means of Southern Blot: The content of mtDNA is determined by a well-known Southern-Blot technique (C. T. Moraes et al., “Quantitative Defects of Mitochondrial DNA”, in: S. DiMauro and D. C. Wallace, “Mitochondrial DNA in Human Pathology”, Raven Press, New York 1993, Chapter 8, pages 97–108). Genomic DNA is extracted from the fatty tissue and cut with the restriction endonuclease Pvull. Five μg of the cut material are separated electrophoretically on a 0.8% agarose gel and transferred to a nylon membrane. The mtDNA is tested with a 12.9 kBp mtDNA fragment (which comprises the nucleotide positions 3470 and 16379 of human mtDNA (S. Anderson et al., Nature 9, 457–65 (1981), and which is marked by means stochastically binding primers with digoxigenin). In order to have an internal standard, digoxigen labeled nuclear DNA (nDNA), which hybridizes to the copy-number 18S-ribosomal DNA gene, serves as a second probe. The signals for mtDNA and nDNA are visualized, according to the recommendations of the manufacturer (Boehringer Mannheim, Germany), with a monoclonal antibody against digoxigenin, which is conjugated with alkaline phosphatase. The signal intensities are quantified by computer by means of standard software. The mtDNA content is expressed as the mtDNA/nDNA (M/N) ratio.

HepG2 cell line [3] = assay: L-lactate in the culture medium of HepG2 cells, enzymatic test; conditions: ddC 177 nM; for Lactate values in the medium in percent of the control: control without ddC and without uridine, Day 0 = 100%
Protocol: as §1, with “micro-nutrients. Lactic acid: 1.5 ml of the remainder of the culture is removed in each case immediately before the trypsinization and the L-lactate in it is determined enzymatically with the lactate test-kit from Roche Diagnostics (order No.1822837) in an automatic analysis device (Roche/Hitachi 917) according to the recommendations of the manufacturer.” for “micro-nutrients.”

HepG2 cell line [4] = assay: Intracellular lipids of HepG2 cells, Oil-Red-O staining
Protocol: as §1, with “The concentrations of uridine are given in the following tables; ddC is used in a concentration of 177 nM, which corresponds to the steady-state plasma levels of patients under HAART.” left out, “micro-nutrients. Determining the intracellular lipids: Intracellular lipid droplets' are stained by means of Oil-Red-O (Sigma, USA). […]” for “micro-nutrients.”

Row | Compound | Number of cells on the day of the trypsinization (HepG2 cell line [1]; Day 5, 2.7×10^6 cells replated every 5 days) | Number of cells on the day of the trypsinization (HepG2 cell line [1]; Day 10) | Number of cells on the day of the trypsinization (HepG2 cell line [1]; Day 20) | Number of cells on the day of the trypsinization (HepG2 cell line [1]; Day 25) | Content of mitochondrial DNA, M/N-ratio in % of the control ([2]; Day 0) [%] | Content of mitochondrial DNA, M/N-ratio in % of the control ([2]; Day 5) [%] | Content of mitochondrial DNA, M/N-ratio in % of the control ([2]; Day 10) [%] | Content of mitochondrial DNA, M/N-ratio in % of the control ([2]; Day 15) [%] | Content of mitochondrial DNA, M/N-ratio in % of the control ([2]; Day 20) [%] | Content of mitochondrial DNA, M/N-ratio in % of the control ([2]; Day 25) [%] | Lactate values in the medium in percent of the control (HepG2 cell line [3]; Day 6) [%] | Lactate values in the medium in percent of the control (HepG2 cell line [3]; Day 10) [%] | Lactate values in the medium in percent of the control (HepG2 cell line [3]; Day 15) [%] | Lactate values in the medium in percent of the control (HepG2 cell line [3]; Day 20) [%] | Lactate values in the medium in percent of the control (HepG2 cell line [3]; Day 25) [%] | Intracellular lipids / steatotic changes, microscopic image (HepG2 cell line [4]; Day 20, Oil-Red-O, 177 nM ddC, 200 μM uridine as printed) | Survival of the HepG2-cells in the presence of ddC (HepG2 cell line [1]; uridine 200 μM, 25-day incubation) | Reduction of the mtDNA ([2]; HepG2, uridine 200 μM) | Production of lactic acid (HepG2 cell line [3]; HepG2, uridine 200 μM) | Compensation for the side effects of ddC (overall, see also Tables 1 to 3) (HepG2 cell line [4]; summary of lipid staining, cell number, mtDNA and lactate)
1 | Nc1ccn([C@H]2CC[C@@H](CO)O2)c(=O)n1 [ddC, dideoxycytidine] | 110.0 100,000s | 98.5 100,000s | 66.2 100,000s | 38.4 100,000s | 100.0 | 25.6 | 25.1 | 11.5 | 8.3 | 8.4 | 109.2 | 129.5 | 220.1 | 374.9 | 392.5 | clearly fewer cells are found, which however, are relatively large and red-colored | – | – | – | –
2 | O=c1ccn([C@@H]2O[C@H](CO)[C@@H](O)[C@H]2O)c(=O)[nH]1 [uridine] | – | – | – | – | – | – | – | – | – | – | – | – | – | – | – | – | normalizes the survival of the HepG2-cells in the presence of ddC | diminishes the reduction of the mtDNA | diminished by the uridine | can compensate for the side effects of ddC

Reference: patent publication US6992072B2, “Combating side-effects” (Pharma Nord ApS, priority 2001, dated 2006)
